# “And” between values parts separate entries of the source, which are not always exact repeats. Equal entries are not always repeated. Structures can show the parent of a compound that is named as a salt. Where two headings read alike, the source gives them in different places. Marks after values point to notes of the source that are not given here.
# Key:
# Type in all cases: physicochemical
# [1] = Crystal morphology assessed by microscopy
# [2] = Moisture sorption isotherm (DVS); settings: 25° C.; as the relative humidity decreased below 10%
# Description: A study was conducted to evaluate the moisture sorption isotherms of atrasentan hemi-sulfate salt (1:1 stoichiometry), monohydrate, and atrasentan S-mandelate salt (1:1 stoichiometry), anhydrate. A sample (about 5 mg to about 20 mg) of the powder to be tested was loaded onto the tared pan of a DVS Advantage dynamic gravimetric water sorption analyzer (Surface Measurement Systems Ltd, Alperton, United Kingdom). The moisture sorption isotherm for each sample was collected at 10% relative humidity intervals as the relative humidity was adjusted in the following manner: (a) 0% to 90% to 0% to 90% to 40% for the hemi-sulfate salt, and (b) 0% to 90% to 0% for the S-mandelate salt. For each step, the dm/dt criteria were 0.001% over 5 minutes with a minimum dm/dt time of 30 minutes and a maximum dm/dt of 120 minutes. Data was collected isothermally at 25° C. with a nitrogen flow rate of […]. The sample was maintained at 30% relative humidity and analyzed by PXRD. The moisture sorption isotherms generated for the hemi-sulfate and S-mandelate salt samples are shown in FIG. 6-A and FIG. 6-B, respectively.
# [3] = Bulk density and tap density (USP <616>); settings: unmilled; USP <616> Method I, 100 mL cylinder
# Description: Bulk and tap density are measured following United States Pharmacopeia and National Formulary guidelines (USP <616>). Approximately 60 mL of each sample is added into a 100 mL graduated cylinder. The powder is carefully leveled without compacting, and the volume is read directly from the cylinder and used to calculate the bulk density according to the relationship: mass/volume. The cylinder containing the powder sample is then mechanically tapped using a VanKel Tap Density Tester (Model 50-1200, Varian, Inc., Palo Alto, Calif.) until there is no change in volume. The volume of the sample is then read and used in the calculation of tap density.
# Bulk density and tap density were measured for samples of the following materials: (i) unmilled atrasentan hydrochloride salt having the morphology and particle size distribution listed below in Table 10; and (ii) unmilled atrasentan mandelate salt having the morphology and particle size distribution listed below in Table 10. […] Bulk density was measured in accordance with Bulk Density, Method I of United States Pharmacopeia and National Formulary Guidelines (USP <616>) except that a 100 mL cylinder was filled with the sample for the testing. Tap density was measured in accordance with Tapped Density, Method I of United States Pharmacopeia and National Formulary guidelines (USP <616>) except that a 100 mL cylinder was filled with the sample for the testing.
# [4] = Morphology and particle size distribution of the unmilled samples; settings: for PARTICLE SIZE DISTRIBUTION D10 / PARTICLE SIZE DISTRIBUTION D50 / PARTICLE SIZE DISTRIBUTION D90: unmilled; for MORPHOLOGY: unmilled sample used for density measurement
# [5] = Oxidative stability (urea-H2O2 co-crystal, HPLC); settings: for RECOVERED (%): solid exposed to urea-H2O2 co-crystal, 40° C., HPLC, individual samples 1-3; for RECOVERED (%) / AVERAGE (%) recovered / AVERAGE % (NORMALIZED): seven days; for AVERAGE (%) recovered / AVERAGE % (NORMALIZED): urea-H2O2, 40° C.; for AVERAGE (%) recovered: mean of samples 1-3; for AVERAGE % (NORMALIZED): sample average normalized to freezer blank average
# Description: About 1 mg of each solid was placed in a 4 mL glass vial and about 10 mg of urea-H2O2 co-crystal was placed in another 4 mL vial. The two vials then were connected by a connector (Kontes connector, 13-425X13-425, apt NO 747205-1313) and left in an oven at 40° C. for seven days. Blank samples were prepared by placing about 1 mg of each compound in a 4 mL vial and then storing the vial in a freezer at about −20° C. for the same period of time. The oven samples and freezer blanks were analyzed at the same time by HPLC. The measured data are reported in Table II-B below and the normalized data from Table II-B are shown in a bar chart in FIG. 3.
# [6] = Intrinsic dissolution rate as a function of chloride ion concentration; settings: for IDR (intrinsic dissolution rate): pH 2.0 phosphate buffer, 37° C., 50 rpm; for linear regression intercept a of IDR = a + b × [Cl−] / linear regression slope b of IDR = a + b × [Cl−]: pH 2.0, [Cl−] 0 to 0.17 M
# Description: (§1) About 100 mg of the sample tested was prepared by compressing the sample in a stainless steel die under 1100 pounds force with a dwell time of one minute to form a pellet. The die (diameter: 0.373 inch, area: 0.704 cm^2) containing the pellet was submerged in 250 mL of a phosphate buffer dissolution test medium having a pH of 2.0 and a chloride ion concentration of 0 M, 0.017 M, or 0.17 M. The medium was stirred by a paddle at 50 rpm and maintained at 37° C. To measure the concentration of the sample material in test medium, a fiber optic dip probe (μDiss Profile, pION
# Inc) was used to monitor the UV absorbance as a function of time. The measured data are reported in Table 13-A below and are shown graphically in FIG. 5.
# The intrinsic dissolution data reported in Table 13-A were further evaluated using linear regression analysis.
# [7] = Intrinsic dissolution rate as a function of pH; settings: for IDR (intrinsic dissolution rate): 37° C., 50 rpm, single runs
# Description: as §1, with “of 2.0, 5.0,” for “of 2.0 and a chloride ion concentration of 0 M, 0.017 M,”, “or 7.4.” for “or 0.17 M.”, “in the” for “in test”, “pION Inc) was used to monitor the UV absorbance as a function of time. The measured data are reported in Table 12-A below and are shown graphically in FIG. 4.” for “pION”
molecule,measurement,setting,value
CCCCN(CCCC)C(=O)CN1CC(c2ccc3c(c2)OCO3)C(C(=O)O)C1c1ccc(OC)cc1.O.O=S(=O)(O)O (stereo not drawn),CRYSTAL MORPHOLOGY,[1],Needle
same,solid form change during moisture sorption isotherm,[2],partial conversion from the hydrate form to the anhydrate form
CCCCN(CCCC)C(=O)CN1CC(c2ccc3c(c2)OCO3)C(C(=O)O)C1c1ccc(OC)cc1.Cl (stereo not drawn),CRYSTAL MORPHOLOGY,[1],Needle
CCCCN(CCCC)C(=O)CN1C[C@H](c2ccc3c(c2)OCO3)[C@@H](C(=O)O)[C@@H]1c1ccc(OC)cc1.Cl,CRYSTAL MORPHOLOGY,[1],Needle
CCCCN(CCCC)C(=O)CN1CC(c2ccc3c(c2)OCO3)C(C(=O)O)C1c1ccc(OC)cc1.O=C(O)C(O)c1ccccc1 (stereo not drawn),CRYSTAL MORPHOLOGY,[1],Prism
CCCCN.CCCCN(CCCC)C(=O)CN1CC(c2ccc3c(c2)OCO3)C(C(=O)O)C1c1ccc(OC)cc1 (stereo not drawn),CRYSTAL MORPHOLOGY,[1],Bar
CCCCN(CCCC)C(=O)CN1C[C@H](c2ccc3c(c2)OCO3)[C@@H](C(=O)O)[C@@H]1c1ccc(OC)cc1 [Hydrochloride],CRYSTAL MORPHOLOGY,"[1]; listed as Hydrochloride (1:1 Stoichiometry), Crystalline Form II",Needle
same,BULK DENSITY,[3],0.11 g/mL
same,TAP DENSITY,[3],0.20 g/mL
same,PARTICLE SIZE DISTRIBUTION D10,[4],6.0 μm
same,PARTICLE SIZE DISTRIBUTION D50,[4],20 μm
same,PARTICLE SIZE DISTRIBUTION D90,[4],86 μm
same,MORPHOLOGY,[4],Needle
same,RECOVERED (%),[5],87.62% and 87.21% and 83.11%
same,AVERAGE (%) recovered,[5],85.98%
same,AVERAGE % (NORMALIZED),[5],89.48%
same,IDR (intrinsic dissolution rate),[6]; [Cl−] 0.0 M,1.4 × 10^−1 (n = 1) mg/min/cm^2
same,IDR (intrinsic dissolution rate),[6]; [Cl−] 0.017 M,1.3 × 10^−1 (n = 1) mg/min/cm^2
same,IDR (intrinsic dissolution rate),[6]; [Cl−] 0.17 M,4.2 × 10^−2 (n = 1) mg/min/cm^2
same,linear regression intercept a of IDR = a + b × [Cl−],[6],a2 = 0.1377
same,linear regression slope b of IDR = a + b × [Cl−],[6],b2 = −0.5609
"CCCCN(CCCC)C(=O)CN1C[C@H](c2ccc3c(c2)OCO3)[C@@H](C(=O)O)[C@@H]1c1ccc(OC)cc1 [Parent, (2R,3R,4S)-4-(1,3-benzodioxol-5-yl)-1-[2-(dibutylamino)-2-oxoethyl]-2-(4-methoxyphenyl)pyaolidine-3-carboxylic acid]",CRYSTAL MORPHOLOGY,[1]; Hemi-hydrate,Prism
same,RECOVERED (%),[5],93.76% and 91.62% and 89.37%
same,AVERAGE (%) recovered,[5],91.58%
same,AVERAGE % (NORMALIZED),[5],89.56%
same,IDR (intrinsic dissolution rate),[7]; pH 2.0 phosphate buffer,2.7 × 10^−2 (n = 1) mg/min/cm^2
same,IDR (intrinsic dissolution rate),[7]; pH 5.0 phosphate buffer,5.1 × 10^−3 mg/min/cm^2 and 5.4 × 10^−3 mg/min/cm^2
same,IDR (intrinsic dissolution rate),[7]; pH 7.4 phosphate buffer,3.6 × 10^−2 (n = 1) mg/min/cm^2
"CCCCN(CCCC)C(=O)CN1C[C@H](c2ccc3c(c2)OCO3)[C@@H](C(=O)O)[C@@H]1c1ccc(OC)cc1 [Parent, Anhydrate, (2R,3R,4S)-4-(1,3-benzodioxol-5-yl)-1-[2-(dibutylamino)-2-oxoethyl]-2-(4-methoxyphenyl)pyaolidine-3-carboxylic acid]",CRYSTAL MORPHOLOGY,[1],Needle
"CCCCN(CCCC)C(=O)CN1C[C@H](c2ccc3c(c2)OCO3)[C@@H](C(=O)O)[C@@H]1c1ccc(OC)cc1 [Parent, Quarter-hydrate, (2R,3R,4S)-4-(1,3-benzodioxol-5-yl)-1-[2-(dibutylamino)-2-oxoethyl]-2-(4-methoxyphenyl)pyaolidine-3-carboxylic acid]",CRYSTAL MORPHOLOGY,[1],Needle
"CCCCN(CCCC)C(=O)CN1CC(c2ccc3c(c2)OCO3)C(C(=O)O)C1c1ccc(OC)cc1.CCCCN(CCCC)C(=O)CN1CC(c2ccc3c(c2)OCO3)C(C(=O)O)C1c1ccc(OC)cc1.O=C(O)C(O)c1ccccc1 (stereo not drawn) [S-Mandelate (2:1 Stoichiometry), Hydrate]",CRYSTAL MORPHOLOGY,[1],Prism
Mandelate,CRYSTAL MORPHOLOGY,[1],Prism
same,BULK DENSITY,[3],0.25 g/mL
same,TAP DENSITY,[3],0.40 g/mL
same,PARTICLE SIZE DISTRIBUTION D10,[4],16 μm
same,PARTICLE SIZE DISTRIBUTION D50,[4],49 μm
same,PARTICLE SIZE DISTRIBUTION D90,[4],141 μm
same,MORPHOLOGY,[4],Prismatic
same,oxidative stability compared with atrasentan parent and hydrochloride salt,[5]; ANOVA of sample recovery proportion,greater oxidative stability
same,RECOVERED (%),[5],82.40% and 80.67% and 83.11%
same,AVERAGE (%) recovered,[5],79.58%
same,AVERAGE % (NORMALIZED),[5],99.30%
same,IDR (intrinsic dissolution rate),[7]; pH 5.0 phosphate buffer,2.1 × 10^−2 mg/min/cm^2 and 1.8 × 10^−2 mg/min/cm^2
same,IDR (intrinsic dissolution rate),[7]; pH 7.4 phosphate buffer,1.1 × 10^−1 mg/min/cm^2 and 1.0 × 10^−1 mg/min/cm^2
same,intrinsic dissolution rate compared with atrasentan parent,"[7]; paired t-test, pH 2.0, 5.0, 7.4",statistically greater intrinsic dissolution rate
same,IDR (intrinsic dissolution rate),[6]; [Cl−] 0.0 M,1.0 × 10^−1 (n = 1) mg/min/cm^2
same,IDR (intrinsic dissolution rate),[6]; [Cl−] 0.017 M,1.0 × 10^−1 (n = 1) mg/min/cm^2
same,IDR (intrinsic dissolution rate),[6]; [Cl−] 0.17 M,8.3 × 10^−2 (n = 3)** mg/min/cm^2
same,sensitivity of intrinsic dissolution rate to chloride ion concentration compared with hydrochloride salt,[6]; linear regression slopes,less sensitive to chloride ion concentration
same,linear regression intercept a of IDR = a + b × [Cl−],[6],a1 = 0.1035
same,linear regression slope b of IDR = a + b × [Cl−],[6],b1 = −0.1222
